According to ChEMBL document CHEMBL1268853, “Characterization of Acetylcholinesterase Inhibitory Constituents from Annona glabra Assisted by HPLC Microfractionation” (J Nat Prod, 2010):
Counter-ions that a name gives are not always drawn.

Biological target: Acetylcholinesterase (Electrophorus electricus, UniProt O42275)
Assay: Inhibition of electric eel AChE by Ellman's method

Acetylcholinesterase, sequence (O42275 whole entry): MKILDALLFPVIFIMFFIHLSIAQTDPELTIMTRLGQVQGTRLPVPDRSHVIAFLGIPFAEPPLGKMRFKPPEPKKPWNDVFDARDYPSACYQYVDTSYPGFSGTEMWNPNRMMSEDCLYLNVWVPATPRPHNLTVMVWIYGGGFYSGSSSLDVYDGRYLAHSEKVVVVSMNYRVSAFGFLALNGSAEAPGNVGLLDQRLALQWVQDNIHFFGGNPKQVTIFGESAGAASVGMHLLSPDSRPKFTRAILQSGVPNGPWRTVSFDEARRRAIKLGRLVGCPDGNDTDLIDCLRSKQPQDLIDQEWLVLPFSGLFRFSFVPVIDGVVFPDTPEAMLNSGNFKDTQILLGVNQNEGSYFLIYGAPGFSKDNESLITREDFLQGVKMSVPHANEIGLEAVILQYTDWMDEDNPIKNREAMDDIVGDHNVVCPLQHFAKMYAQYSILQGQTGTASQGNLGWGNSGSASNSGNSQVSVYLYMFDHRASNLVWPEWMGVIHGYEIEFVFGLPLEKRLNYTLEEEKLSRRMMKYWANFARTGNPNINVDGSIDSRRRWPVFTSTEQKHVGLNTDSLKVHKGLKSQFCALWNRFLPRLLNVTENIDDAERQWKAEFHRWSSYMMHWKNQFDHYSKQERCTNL

SMILES	IC50
COc1cc2ccnc3c2c(c1OC)-c1ccccc1C3=O [LYSICAMINE]	16.1 µM
O[C@@H]1c2ccccc2-c2c3c(cc4c2[C@H]1NCC4)OCO3	> 126 µM
COc1cc2ccnc3c2c(c1OC)-c1cc2c(cc1C3=O)OCO2	> 150 µM
O=C1c2ccccc2-c2c3c(cc4ccnc1c24)OCO3 [LIRIODENINE]	> 150 µM
COc1cc2c(cc1OC)[C@@H]1Cc3ccc(O)c(OC)c3C=[N+]1CC2	30.8 µM
COc1cc2c(cc1OC)-c1cc3ccc(O)c(OC)c3c[n+]1CC2 [DEHYDROCORYDALMINE TRIFLUOROACETATE]	96.5 µM
COc1cc2c(cc1O)C[C@H]1NCCc3cc4c(c-2c31)OCO4	> 117 µM
COc1cc2c(cc1O)C=[N+]1CCc3cc(OC)c(OC)cc3[C@@H]1C2	154 µM
COc1c(O)c2c3c(c1OC)-c1cc4c(cc1C[C@@H]3NCC2)OCO4	76.9 µM
COc1cc2c(cc1O)-c1cc3cc(OC)c(OC)cc3c[n+]1CC2 [PSEUDOCOLUMBAMINE TRIFLUOROACETATE]	5 µM
COc1cc2c[n+]3c(cc2cc1O)-c1cc(OC)c(OC)cc1CC3 [DEHYDROCORYTENCHINE TRIFLUOROACETATE]	97.6 µM
COc1cc2c3c(c1O)-c1c(ccc(OC)c1OC)C[C@@H]3[N+](C)(C)CC2	> 140 µM
COc1c(O)c2c3c(c1OC)-c1ccccc1C[C@H]3NCC2	110 µM
COc1ccc(C[C@H]2c3cc(O)c(OC)cc3CCN2C)cc1O	72.2 µM
COc1cc2c(cc1OC)-c1cc3cc(OC)c(OC)cc3c[n+]1CC2 [PSEUDOPALMATINE TRIFLUOROACETATE]	1.8 µM
COc1cccc2c1C(=O)c1c(C)cc(=O)[nH]c1C2=O	23.4 µM
COc1cc2c(cc1O)C=[N+](C)CC2	16 µM
COc1cc2c(cc1O)C[N@+]1(C)CCc3cc(OC)c(OC)cc3[C@@H]1C2	8.4 µM
COc1c(O)cc2c3c1-c1ccccc1C[C@H]3NCC2	123 µM
